Source: patent publication US20250296953A1, “3,4-THIAZOLO-STEROIDS AND METHODS OF MAKING AND USING THE SAME” (Arkansas State University - Jonesboro, priority 2018, published 2025)
Where two headings read alike, the source gives them in different places.

What was measured:
[1] = system: 60 different human tumor cell lines; assay: NCI Development Therapeutics Program 60 cell line screen, one dose; type: cell-based
[2] = system: 60 different human tumor cell lines; conditions: for GI50 / TGI: five dose
[3] = A549/ATCC (Non-small Cell Lung Cancer)
[4] = EKVX (Non-small Cell Lung Cancer)
[5] = HOP-62 (Non-small Cell Lung Cancer)
[6] = HOP-92 (Non-small Cell Lung Cancer)

What does the source list for C[C@]12CCc3nc(Nc4ccc(O)cc4)sc3C1=CC[C@@H]1[C@@H]2CC[C@]2(C)C(=O)CC[C@@H]12 [IIa.35]?
Growth Percent ([1]; Breast Cancer, BT-549): 45.59%; Growth Percent ([1]; Breast Cancer, HS 578T): 53.60%; Growth Percent ([1]; Breast Cancer, MCF7): 3.11%; Growth Percent ([1]; Breast Cancer, MDA-MB-231/ATCC): 35.27%; Growth Percent ([1]; Breast Cancer, MDA-MB-468): −36.91%; Growth Percent ([1]; Breast Cancer, T-47D): 10.57%; Growth Percent ([1]; CNS Cancer, SF-268): 58.35%; Growth Percent ([1]; CNS Cancer, SNB-19): 64.60%; Growth Percent ([1]; CNS Cancer, SNB-75): 41.74%; Growth Percent ([1]; CNS Cancer, U251): 19.48%; Growth Percent ([1]; Colon Cancer, COLO 205): 38.45%; Growth Percent ([1]; Colon Cancer, HCC-2998): 97.70%; Growth Percent ([1]; Colon Cancer, HCT-116): −72.37%; Growth Percent ([1]; Colon Cancer, HT29): 10.26%; Growth Percent ([1]; Colon Cancer, KM12): 46.68%; Growth Percent ([1]; Colon Cancer, SW-620): −32.15%; Growth Percent ([1]; Leukemia, CCRF-CEM): 8.33%; Growth Percent ([1]; Leukemia, HL-60(TB)): 8.98%; Growth Percent ([1]; Leukemia, K-562): 10.77%; Growth Percent ([1]; Leukemia, MOLT-4): 10.99%; Growth Percent ([1]; Leukemia, RPMI-8226): −24.54%; Growth Percent ([1]; Leukemia, SR): 9.60%; Growth Percent ([1]; Melanoma, LOX IMVI): −8.01%; Growth Percent ([1]; Melanoma, M14): 58.13%; Growth Percent ([1]; Melanoma, MALME-3M): 29.71%; Growth Percent ([1]; Melanoma, MDA-MB-435): 35.34%; Growth Percent ([1]; Melanoma, SK-MEL-2): 72.46%; Growth Percent ([1]; Melanoma, SK-MEL-5): 62.03%; Growth Percent ([1]; Melanoma, SK-MEL-28): 77.86%; Growth Percent ([1]; Melanoma, UACC-62): 55.82%; Growth Percent ([1]; Melanoma, UACC-257): 73.38%; Growth Percent ([1]; Non-small Cell Lung Cancer, A549/ATCC): 79.28%; Growth Percent ([1]; Non-small Cell Lung Cancer, EKVX): 98.04%; Growth Percent ([1]; Non-small Cell Lung Cancer, HOP-62): 92.69%; Growth Percent ([1]; Non-small Cell Lung Cancer, HOP-92): 125.71%; Growth Percent ([1]; Non-small Cell Lung Cancer, NCI-H23): 70.16%; Growth Percent ([1]; Non-small Cell Lung Cancer, NCI-H226): 102.70%; Growth Percent ([1]; Non-small Cell Lung Cancer, NCI-H322M): 93.36%; Growth Percent ([1]; Non-small Cell Lung Cancer, NCI-H460): 65.57%; Growth Percent ([1]; Ovarian Cancer, IGROV1): 13.07%; Growth Percent ([1]; Ovarian Cancer, NCI/ADR-RES): 68.59%; Growth Percent ([1]; Ovarian Cancer, OVCAR-3): −31.67%; Growth Percent ([1]; Ovarian Cancer, OVCAR-4): 57.12%; Growth Percent ([1]; Ovarian Cancer, OVCAR-5): 116.69%; Growth Percent ([1]; Ovarian Cancer, OVCAR-8): 35.92%; Growth Percent ([1]; Ovarian Cancer, SK-OV-3): 107.77%; Growth Percent ([1]; Prostate Cancer, DU-145): 10.45%; Growth Percent ([1]; Prostate Cancer, PC-3): 39.10%; Growth Percent ([1]; Renal Cancer, 786-0): −3.03%; Growth Percent ([1]; Renal Cancer, A498): 100.87%; Growth Percent ([1]; Renal Cancer, ACHN): −17.29%; Growth Percent ([1]; Renal Cancer, CAKI-1): 47.13%; Growth Percent ([1]; Renal Cancer, RXF 393): −16.18%; Growth Percent ([1]; Renal Cancer, SN12C): 30.38%; Growth Percent ([1]; Renal Cancer, TK-10): 22.82%; Growth Percent ([1]; Renal Cancer, UO-31): −48.83%; CC50 [2]: > 100000 nM; GI50 ([2]; 786-0 (Renal Cancer)): 1800 nM; TGI ([2]; 786-0 (Renal Cancer)): 3.82; GI50 ([2]; A498 (Renal Cancer)): 14200 nM; TGI ([2]; A498 (Renal Cancer)): 8.06E−5; GI50 [2, 3]: 4420 nM; TGI [2, 3]: >1.00E−4; GI50 ([2]; ACHN (Renal Cancer)): 2920 nM; TGI ([2]; ACHN (Renal Cancer)): 9.29E−6; GI50 ([2]; BT-549 (Breast Cancer)): 3130 nM; TGI ([2]; BT-549 (Breast Cancer)): >1.00E−4; GI50 ([2]; CAKI-1 (Renal Cancer)): 1930 nM; TGI ([2]; CAKI-1 (Renal Cancer)): 3.97E−6; GI50 ([2]; CCRF-CEM (Leukemia)): 2470 nM; TGI ([2]; CCRF-CEM (Leukemia)): >1.00E−4; GI50 ([2]; COLO 205 (Colon Cancer)): 2000 nM; TGI ([2]; COLO 205 (Colon Cancer)): 3.90E−6; GI50 ([2]; DU-145 (Prostate Cancer)): 1660 nM; TGI ([2]; DU-145 (Prostate Cancer)): 3.14E−6; GI50 [2, 4]: 10400 nM; TGI [2, 4]: 4.00E−4; GI50 ([2]; HCC-2998 (Colon Cancer)): 4110 nM; TGI ([2]; HCC-2998 (Colon Cancer)): >1.00E−4; GI50 ([2]; HCT-15 (Colon Cancer)): 1660 nM; TGI ([2]; HCT-15 (Colon Cancer)): 4.40E−6; GI50 ([2]; HCT-116 (Colon Cancer)): 1900 nM; GI50 ([2]; HL-60(TB) (Leukemia)): 2570 nM; TGI ([2]; HL-60(TB) (Leukemia)): 7.27E−6; GI50 [2, 5]: 3280 nM; TGI [2, 5]: 1.26E−5; GI50 [2, 6]: 2390 nM; TGI [2, 6]: 5.65E−6; GI50 ([2]; HS 578T (Breast Cancer)): 3380 nM; TGI ([2]; HS 578T (Breast Cancer)): >1.00E−4; GI50 ([2]; HT29 (Colon Cancer)): 2130 nM; TGI ([2]; HT29 (Colon Cancer)): 5.59E−6; GI50 ([2]; IGROV1 (Ovarian Cancer)): 1990 nM; TGI ([2]; IGROV1 (Ovarian Cancer)): 5.02E−6; GI50 ([2]; K-562 (Leukemia)): 2960 nM; TGI ([2]; K-562 (Leukemia)): >1.00E−4; GI50 ([2]; KM12 (Colon Cancer)): 1930 nM; TGI ([2]; KM12 (Colon Cancer)): 4.06E−6; GI50 ([2]; LOX IMVI (Melanoma)): 1580 nM; TGI ([2]; LOX IMVI (Melanoma)): 3.04E−6; GI50 ([2]; M14 (Melanoma)): 2680 nM; GI50 ([2]; MALME-3M (Melanoma)): 1810 nM; TGI ([2]; MALME-3M (Melanoma)): 4.03E−6; GI50 ([2]; MCF7 (Breast Cancer)): 1660 nM; TGI ([2]; MCF7 (Breast Cancer)): 4.26E−6; GI50 ([2]; MDA-MB-231/ATCC (Breast Cancer)): 3220 nM; GI50 ([2]; MDA-MB-435 (Melanoma)): 2080 nM; TGI ([2]; MDA-MB-435 (Melanoma)): 5.32E−6; GI50 ([2]; MDA-MB-468 (Breast Cancer)): 2170 nM; TGI ([2]; MDA-MB-468 (Breast Cancer)): 5.80E−6; GI50 ([2]; MOLT-4 (Leukemia)): 2380 nM; TGI ([2]; MOLT-4 (Leukemia)): >1.00E−4
